Data from patent US9737516B2, “Bicyclic heterocycles as bet protein inhibitors” (Incyte Corporation, priority 2013, dated 2017).
Structures can show the parent of a compound that is named as a salt.

Columns and labels:
[1] = test system: KMS.12.BM cells; experiment: KMS.12.BM cell viability assay (ATP quantitation, Cell Titer-GLO); assay type: cell-based; conditions: Homo sapiens, 72 h, 3 days, concentration required for 50% cell death, read-out: KMS cellular IC50
Description: KMS.12.BM cell line (human myeloma) was purchased from JCRB (Osaka, Japan) and maintained in RPMI with 10% FBS culture medium. To measure the cytotoxic activity of the compounds through ATP quantitation, the KMS.12.BM cells are plated in the RPMI culture medium at 5000 cells/well/per 100 μL into a 96-well polystyrene clear black tissue culture plate (Greiner-bio-one through VWR, NJ), in the presence or absence of a concentration range of test compounds. After 3 days, […] Cell Titer-GLO Luminescent (Promega, Madison, Wis.) cell culture agent is added to each well for 10 minutes at room temperature to stabilize the luminescent signal. This determines the number of viable cells in culture based on quantitation of the ATP present, which signals the presence of metabolically active cells. Luminescence is measured with the Top Count 384 (Packard Bioscience through Perkin Elmer, Boston, Mass.). Compound inhibition is determined relative to cells cultured with no drug and the IC50 is reported as the compound concentration required for 50% cell death. IC50 data for the Examples is presented in Table 2 as determined by Assay B1.

[2] = biological target: BRD4-BD1 (Homo sapiens (Human), UniProt O60885); experiment: BRD4 AlphaScreen assay (BRD4-BD1); assay type: binding; conditions: H4Ac4 peptide, 3.8 nM BRD4-BD1, read-out: BRD4 BD-1 enzyme IC50
Description: (§1) BRD4-BD1 and BRD4-BD2 assays were conducted in white 384-well polystyrene plate in a final volume of 20 μL for BD1 and 40 μL for BD2. Inhibitors were first serially diluted in DMSO and added to the plate wells before the addition of other reaction components. The final concentration of DMSO in the assay was 1.25% (BD1) and 0.83% (BD2). The assays were carried out at room temperature for 75 min. in the assay buffer (50 mM HEPES, pH 7.4, 100 mM NaCl, 0.05% CHAPS, 0.01% BSA), containing 50 nM Biotin-labeled tetra-acetylated histone H4 peptide (H4Ac4), 3.8 nM (BRD4-BD1, BPS Bioscience #31040) or 20 nM (BRD4-BD2, BPS Bioscience #31041). The reaction followed by the addition of 20 μL of assay buffer supplemented with Streptavidin donor beads (PerkinElmer 6760002) and GSH Acceptor beads (PerkinElmer-AL109C) at 4 µg/mL under reduced light. After plate sealing, the plate was incubated in the dark at room temperature for 75 min. before reading on a PHERAstar FS plate reader (BMG Labtech). IC50 determination was performed by fitting the curve of percent control activity versus the log of the inhibitor concentration using the GraphPad Prism 5.0 software. IC50 data for the Examples is presented in Table 1 as determined by Assay A1.

[3] = biological target: BRD4-BD2 (Homo sapiens (Human), UniProt O60885); experiment: BRD4 AlphaScreen assay (BRD4-BD2); assay type: binding; conditions: H4Ac4 peptide, 20 nM BRD4-BD2, read-out: BRD4 BD-2 enzyme IC50
Description: as §1

[4] = test system: C-myc in KMS.12.BM cells; experiment: KMS.12.BM C-myc ELISA assay; assay type: cell-based; conditions: Homo sapiens, 2 hours
Description: KMS.12.BM cell line (human myeloma) was purchased from JCRB (Osaka, Japan) and maintained in RPMI with 10% FBS culture medium. To measure the C-myc inhibitory activity of the compounds, the KMS.12.BM cells are plated in the RPMI culture medium at 75000 cells/well/per 200 μL into a 96-well flat bottom polystyrene tissue culture plate (Corning through VWR, N.J.), in the presence or absence of a concentration range of test compounds. After 2 hours, cell are pelleted and lysed with Cell Extraction Buffer (BioSource, Carlsbad, Calif.) in the presence of protease inhibitors (Life Technologies, Grand Island, N.Y. and Sigma, St Louis, Mo.). Clarified lyses are tested in a C-myc commercial ELISA (Life Technologies, Grand Island, N.Y.). Compound inhibition is determined relative to cells cultured with no drug and the IC50 is reported as the compound concentration required for 50% C-myc inhibition. IC50 data for the Examples is presented in Table 3 as determined by Assay C1.

SMILES	IC50 [2]	IC50 [3]	IC50 [4]	IC50 [1]
Cn1cc(-c2cc3[nH]nnc3cc2Oc2ccc(F)cc2F)c2cc[nH]c2c1=O [Example 8, 4-(5-(2,4-difluorophenoxy)-1H-benzo[d][1,2,3]triazol-6-yl)-6-methyl-1H-pyrrolo[2,3-c]pyridin-7(6H)-one]	≤ 0.1 µM	≤ 0.1 µM	≤ 1 µM	≤ 1 µM
Cn1cc(-c2cc3[nH]cnc3cc2Oc2ccc(F)cc2F)c2cn[nH]c2c1=O [Example 9, 4-[6-(2,4-Difluorophenoxy)-1H-benzimidazol-5-yl]-6-methyl-1,6-dihydro-7H-pyrazolo[3,4-c]pyridin-7-one trifluoroacetate]	≤ 0.1 µM	≤ 0.1 µM	≤ 1 µM	≤ 1 µM
Cn1cc(-c2cc3c(cc2Oc2ccc(F)cc2F)n(C)c(=O)n3C)c2cn[nH]c2c1=O [Example 10, 4-[6-(2,4-Difluorophenoxy)-1,3-dimethyl-2-oxo-2,3-dihydro-1H-benzimidazol-5-yl]-6-methyl-1,6-dihydro-7H-pyrazolo[3,4-c]pyridin-7-one]	≤ 0.1 µM	≤ 0.1 µM	≤ 1 µM	≤ 1 µM
Cn1cc(-c2cc3[nH]cnc3cc2OCC2CCC2)c2cc[nH]c2c1=O [Example 11, 4-[5-(Cyclobutylmethoxy)-1H-benzimidazol-6-yl]-6-methyl-1,6-dihydro-7H-pyrrolo[2,3-c]pyridin-7-one]	≤ 0.1 µM	≤ 0.1 µM	≤ 1 µM	≤ 1 µM
CCn1cnc2cc(-c3cn(C)c(=O)c4[nH]ccc34)c(OCC3CCC3)cc21 [Example 13, 4-[6-(Cyclobutylmethoxy)-1-ethyl-1H-benzimidazol-5-yl]-6-methyl-1,6-dihydro-7H-pyrrolo[2,3-c]pyridin-7-one]	≤ 0.1 µM	≤ 0.1 µM	≤ 1 µM	≤ 1 µM
Cn1cc(-c2cc3c(cc2OCC2CCC2)ncn3C)c2cc[nH]c2c1=O [Example 14, 4-[5-(Cyclobutylmethoxy)-1-methyl-1H-benzimidazol-6-yl]-6-methyl-1,6-dihydro-7H-pyrrolo[2,3-c]pyridin-7-one]	≤ 0.1 µM	≤ 0.1 µM	≤ 1 µM	≤ 1 µM

The next lines start with results.

IC50 [2]	IC50 [3]	IC50 [4]	SMILES	IC50 [1]
≤ 0.1 µM	≤ 0.1 µM	≤ 1 µM	Cn1cc(-c2cc3ncn(C)c3cc2OCC2CCC2)c2cc[nH]c2c1=O [Example 15, 4-[6-(Cyclobutylmethoxy)-1-methyl-1H-benzimidazol-5-yl]-6-methyl-1,6-dihydro-7H-pyrrolo[2,3-c]pyridin-7-one]	≤ 1 µM
≤ 0.1 µM	≤ 0.1 µM	≤ 1 µM	Cn1cc(-c2cc3ncn(Cc4ccccc4)c3cc2OCC2CCC2)c2cc[nH]c2c1=O [Example 17, 4-[6-(Cyclobutylmethoxy)-1-benzyl-1H-benzimidazol-5-yl]-6-methyl-1,6-dihydro-7H-pyrrolo[2,3-c]pyridin-7-one]	≤ 1 µM
≤ 0.1 µM	≤ 0.1 µM	≤ 1 µM	CC(C)n1cnc2cc(OCC3CCC3)c(-c3cn(C)c(=O)c4[nH]ccc34)cc21 [Example 18, 4-[5-(Cyclobutylmethoxy)-1-isopropyl-1H-benzimidazol-6-yl]-6-methyl-1,6-dihydro-7H-pyrrolo[2,3-c]pyridin-7-one]	≤ 1 µM
≤ 0.1 µM	≤ 0.1 µM	≤ 1 µM	CC(C)n1cnc2cc(-c3cn(C)c(=O)c4[nH]ccc34)c(OCC3CCC3)cc21 [Example 19, 4-[6-(cyclobutylmethoxy)-1-isopropyl-1H-benzimidazol-5-yl]-6-methyl-1,6-dihydro-7H-pyrrolo[2,3-c]pyridin-7-one]	≤ 1 µM
≤ 0.1 µM	≤ 0.1 µM	≤ 1 µM	Cn1cc(-c2cc3[nH]c(N4CCCCC4)nc3cc2OCC2CCC2)c2cc[nH]c2c1=O [Example 20, 4-[5-(Cyclobutylmethoxy)-2-piperidin-1-yl-1H-benzimidazol-6-yl]-6-methyl-1,6-dihydro-7H-pyrrolo[2,3-c]pyridin-7-one]	≤ 1 µM
